Read-outs that look alike come from different tables or passages of the source.

Test [1] concerns the target EGFR WT kinase (Homo sapiens (Human), UniProt P00533). Put plainly: Wild type EGFR kinase inhibition test (z-lyte). The test is classed as biochemical. The following applies: 10 μM ATP.
Test [2] deals with A431 cells. Kind of test: ELISA cell activity, EGF-stimulated A431 cells.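 Also: Serum-starved A431 cells pretreated with compound for 1 h, then stimulated with EGF for 45 min, lysates read by ELISA (OD450 minus OD570), EGF-only wells as control.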 The test is classed as cell-based. Conditions: ELISA, compound 1 h then EGF 45 minutes, read-out: A431 cells (IC50/nM). A general note: An ELISA detects its analyte on a solid surface through an enzyme-linked reagent.
Protocol: The reagents, preparation methods of the solution, as well as the procedures of cell treatments and preparation of lysate, and the test steps of ELISA in the following method were conducted according to the instructions of R&D DYC3570, R&D DYC1095E and R&D DYC1095BE.
Cell lysates: cell lysis buffer+10 μg/ml Aprotinin (Sigma), 10 μg/ml Leupeptin (Sigma). All reagents were prepared when using.
(2) The medium of A431 cells was changed to 90 ul of DMEM FBS free medium, and incubated overnight.
(3) The test compounds were diluted according to the method in MTT assay, 10 μl of diluted compound or DMSO was added to the corresponding plate well, and incubated at 37° C. with 5% CO2 for 1 h. The final concentration of DMSO was 0.5%. 10 μl of 2 μg/L EGF was then added to each well except the cell control well, 10 μl of FBS free DMEM was added to the well, and incubated for 45 minutes; the EGF-free and compound treatment-free cells were used as cell control, and the compound treatment-free but only EGF-treated cells were used as EGF control.
(4) 100 μl cell lysate was added after aspirating the medium, sealed and placed in refrigerator at −80° C. overnight.
The assay was operated according to the instructions of R&D DYC3570E.
(5) 40 μl of cell lysis buffer and 60 μl of cell lysates were added, and incubated at 25° C. for 2 h under shaking;
(7) Detection antibody was diluted according to a predetermined ratio of kit instruction by using IC dilution, and 100 μl of the diluted Detection Antibody was added to each well, and incubated at 25° C. for 1 h under shaking in darkness;
(9) reagent A and reagent B of TMB substrate (R & D DY999) were mixed at 1:1, 100 μl of substrate was added to each well, and incubated at 25° C. for 20 minutes under shaking in darkness;
(11) The OD450 values and OD570 values of the cell control, blank control and compound treatment were measured respectively by using microplate reader (Thermo Multiskan K3), and the corresponding OD570 values were subtracted from OD450 values of the same wells to get the ODEGF, ODcompound and ODcell respectively.
In test [3] the test system is NIH3T3 cells. Kind of test: Cytotoxicity by MTT method, NIH3T3 cells.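 Also: cells grown in 96-well plates with compound for 72 h, then given MTT for a further 4 h at 37 °C under 5% CO2.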 Conditions: read-out: NIH3T3 cells MTT assay (IC50/nM). Type of test: cell-based. For orientation: Tetrazolium assays rely on reduction of a dye to a coloured formazan, in cell work by metabolically active cells.
Protocol: After rinsed for one time, 1.5 ml trypsin/EDTA was added to digest the adherent cells until the cells detached, and then 3.5 ml of medium was added to terminate the trypsinization. The digested cell suspension was transferred to a 15 ml falcon tube, and spun at 1300 rpm for 3 min, the supernatant was discarded, and cells were suspended in fresh medium.
The cells were added into the incubator after addition of the test compound, and incubated for 72 h, 10 μl of 5 mg/ml MTT (Sigma, M5655) solution was added to each well of the plate, and incubated the 96-well plates at 37° C. 5% CO2 for 4 h in a incubator.
The plates were spun at 2000 rpm for 5 min.
Test [4] relates to H1975 cells. Put plainly: ELISA screening EGFR T790M inhibitor for cell activity, H1975 cells. The test is classed as cell-based. Conditions: ELISA; for IC50: compound 1 h, read-out: H1975 cells (IC50/nM); for Selective inhibitory activities of target on cellular level [IC50 (A431 cells)/IC50 (H1975 cells)]: ratio of IC50 values.
Test [5] relates to H1975 cells. Put plainly: Cytostatic activity by MTT method, H1975 cells. The test is classed as cell-based. The following applies: read-out: H1975 cells (IC50/nM).
Protocol: MTT assay used the method well known to those skilled in the art, and the reagents used in the method can be commercially obtained. […] After rinsed for one time, 1.5 ml trypsin/EDTA was added to digest the adherent cells until the cells detached, and then 3.5 ml of medium was added to terminate the trypsinization. The digested cell suspension was transferred to a 15 ml falcon tube, and spun at 1300 rpm for 3 min, the supernatant was discarded, and cells were suspended in fresh medium. […] The plates were spun at 2000 rpm for 5 min.
[6] abbreviates: Mus musculus, NIH3T3, cytotoxicity, MTT, 72 h.

EGFR WT kinase, sequence (P00533 25-1210): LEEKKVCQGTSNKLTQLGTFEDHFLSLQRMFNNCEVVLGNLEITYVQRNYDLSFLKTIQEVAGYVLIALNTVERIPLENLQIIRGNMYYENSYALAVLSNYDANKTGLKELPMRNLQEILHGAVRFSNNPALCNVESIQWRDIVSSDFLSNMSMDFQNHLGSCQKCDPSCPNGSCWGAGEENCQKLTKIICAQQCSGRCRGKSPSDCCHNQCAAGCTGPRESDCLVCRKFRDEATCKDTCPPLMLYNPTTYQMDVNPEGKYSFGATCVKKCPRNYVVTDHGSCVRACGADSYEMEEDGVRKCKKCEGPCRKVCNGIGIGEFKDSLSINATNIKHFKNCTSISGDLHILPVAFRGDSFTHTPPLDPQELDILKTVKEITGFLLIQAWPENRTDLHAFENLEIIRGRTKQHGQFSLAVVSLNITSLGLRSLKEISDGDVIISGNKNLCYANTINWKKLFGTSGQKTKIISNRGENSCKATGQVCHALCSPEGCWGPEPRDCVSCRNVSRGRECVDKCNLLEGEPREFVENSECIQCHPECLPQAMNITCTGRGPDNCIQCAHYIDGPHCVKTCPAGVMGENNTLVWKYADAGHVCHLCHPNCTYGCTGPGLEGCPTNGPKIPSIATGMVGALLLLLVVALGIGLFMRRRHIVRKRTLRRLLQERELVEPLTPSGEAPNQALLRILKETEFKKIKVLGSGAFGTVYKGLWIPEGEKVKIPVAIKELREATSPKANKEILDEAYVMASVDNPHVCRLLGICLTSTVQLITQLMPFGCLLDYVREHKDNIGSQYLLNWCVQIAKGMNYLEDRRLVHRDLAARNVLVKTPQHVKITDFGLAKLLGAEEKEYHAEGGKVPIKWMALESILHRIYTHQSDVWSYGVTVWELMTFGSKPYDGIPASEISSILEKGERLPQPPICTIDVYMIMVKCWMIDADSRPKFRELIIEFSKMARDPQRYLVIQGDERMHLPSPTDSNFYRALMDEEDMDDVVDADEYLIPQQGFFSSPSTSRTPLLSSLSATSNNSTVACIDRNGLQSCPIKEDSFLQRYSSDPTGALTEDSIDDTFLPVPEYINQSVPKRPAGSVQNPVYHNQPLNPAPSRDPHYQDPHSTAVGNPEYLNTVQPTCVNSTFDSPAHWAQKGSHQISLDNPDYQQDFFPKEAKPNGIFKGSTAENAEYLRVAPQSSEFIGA

In test [1], `C=CC(=O)Nc1cc(Nc2nccc(-c3cnc4c(cnn4C)c3)n2)c(OC)cc1N1CCC(N(C)C)CC1` [Compound Z-4, N-(2-(4-(dimethylamino)piperidin-1-yl)-4-methoxy-5-(4-(1-methyl-1H-pyrazolo[3,4-b]pyridin-5-yl)pyrimidin-2-ylamino)phenyl)acrylamide] showed an IC50 of 45 nM.

As to `C=CC(=O)Nc1cc(Nc2ncc(F)c(-c3cnc4c(cnn4C)c3)n2)c(OC)cc1N(C)CCN(C)C` [Compound Z-41], the IC50 in test [2] is 954 nM; in test [3] (cytotoxicity, MTT, 72 h), more than 10000 nM; in test [1] it was 20 nM; in test [4] it was 31 nM. Further, in test [4], the “Selective inhibitory activities of target on cellular level [IC50 (A431 cells)/IC50 (H1975 cells)]” value (“Selective inhibitory activities” for short) is recorded as 30.8.

For `C=CC(=O)Nc1cc(Nc2ncc(Cl)c(-c3cnc4c(ccn4C)c3)n2)c(OC)cc1N1CCN(C)CC1` [Compound Z-3, N-(5-(5-chloro-4-(1-methyl-1H-pyrrolo[2,3-b]pyridin-5-yl)pyrimidin-2-amino)-4-methoxy-2-(4-methylpiperazin-1-yl)phenyl)acrylamide], the IC50 in test [3] (setting [6]) amounted to 8160 nM.

As for `C=CC(=O)Nc1cc(Nc2ncc(F)c(-c3cnc4c(ccn4C)c3)n2)c(OC)cc1OCCN(C)C` [Compound Z-118], the IC50 turned out to be 3320 nM in test [3] (cytotoxicity, MTT, 72 h) and 6 nM in test [1].

In the case of `C=CC(=O)Nc1cc(Nc2nccc(-c3cnc4c(ccn4C)c3)n2)c(OC)cc1N1CCN(C)CC1` [Compound Z-26], the IC50 in test [3] (cytotoxicity, MTT, 72 h) was more than 10000 nM; in test [1] it was 114 nM.

Take `C=CC(=O)Nc1cc(Nc2nccc(-c3cnn(C)c3)n2)c(OC)cc1N1CCC(N(C)C)CC1` [Compound Z-17, N-(2-(4-(dimethylamino)piperidin-1-yl)-4-methoxy-5-((4-(1-methyl-1H-pyrazol-4-yl)pyrimidin-2-yl)amino)phenyl)acrylamide]: the IC50 in test [2] (Homo sapiens, A-431) was found to be 3080 nM; in test [4] (Homo sapiens, NCI-H1975), 77 nM.

Take `C=CC(=O)Nc1cc(Nc2ncc(Cl)c(-c3cnn(C(F)F)c3)n2)c(OC)cc1N1CCC(N(C)C)CC1` [Compound Z-101, N-(5-(5-chloro-4-(1-(difluoromethyl)-1H-pyrazol-4-yl)pyrimidin-2-ylamino)-2-(4-(dimethylamino)piperidin-1-yl)-4-methoxyphenyl)acrylamide]: the IC50 in test [5] (Homo sapiens, NCI-H1975, MTT, 72 h) was 43 nM; in test [3] (setting [6]), 3430 nM.

Regarding `C=CC(=O)Nc1cc(Nc2ncc(Cl)c(-c3cnn(C4CCNCC4)c3)n2)c(OC)cc1N1CCC(N(C)C)CC1` [Compound Z-96, N-(5-(5-chloro-4-(1-(piperidin-4-yl)-1H-pyrazol-4-yl)pyrimidin-2-ylamino)-2-(4-(dimethylamino)piperidin-1-yl)-4-methoxyphenyl)acrylamide], the IC50 in test [2] (Homo sapiens, A-431) worked out at 969 nM; in test [1] it was 41 nM; in test [4] (Homo sapiens, NCI-H1975), 94 nM. The “Selective inhibitory activities” value in test [4] is 10.3.

With `CN(C)C/C=C/C(=O)Nc1cc2c(Nc3ccc(F)c(Cl)c3)ncnc2cc1O[C@H]1CCOC1` [BIBW2992, Afatinib, reference compound], the IC50 was 88 nM in test [5] (Homo sapiens, NCI-H1975, 72 h) and 2750 nM in test [3] (Mus musculus, NIH3T3, 72 h).

`C=CC(=O)Nc1cc(Nc2ncc(Cl)c(-c3cnc4c(ccn4C)c3)n2)c(OC)cc1N(C)CCCN(C)C` [Compound Z-111]: the IC50 in test [3] (cytotoxicity, MTT, 72 h) came to 4010 nM.

Consider `C=CC(=O)Nc1cc(Nc2nccc(-c3cnc4[nH]ccc4c3)n2)c(OC)cc1N1CC(N(C)C)C1` [Compound Z-33], for which, in test [3] (cytotoxicity, MTT, 72 h), the IC50 is more than 10000 nM.

On to `C=CC(=O)Nc1cc(Nc2ncc(F)c(-c3cnc4c(ccn4C)c3)n2)c(OC)cc1N1CCC(N(C)C)CC1` [Compound Z-29], for which the IC50 in test [1] was 118 nM.

In the case of `C=CC(=O)Nc1cc(Nc2ncc(Cl)c(-c3cnn(C)c3C)n2)c(OC)cc1N1CCC(N(C)C)CC1` [Compound Z-97, N-(5-(5-chloro-4-(1,5-dimethyl-1H-pyrazol-4-yl)pyrimidin-2-ylamino)-2-(4-(dimethylamino)piperidin-1-yl)-4-methoxyphenyl)acrylamide], the IC50 in test [2] (Homo sapiens, A-431) came to 7500 nM; in test [1], 341 nM; in test [4] (Homo sapiens, NCI-H1975), 104 nM. For the same molecule, in test [4], the “Selective inhibitory activities” value amounted to 72.1.

For `C=CC(=O)Nc1cc(Nc2nccc(-c3cnc4c(ccn4C)c3)n2)c(OC)cc1N1CCC(N(C)C)CC1` [Compound Z-25], the IC50 in test [3] (cytotoxicity, MTT, 72 h) is 6910 nM; in test [1], 61 nM.

`C=CC(=O)Nc1cc(Nc2nccc(-c3cnc4c(c3)c(Cl)cn4C)n2)c(OC)cc1N(C)CCN(C)C` [Compound Z-54]: the IC50 is 3 nM in test [5] (MTT, 72 h) and 4 nM in test [4].

As for `C=CC(=O)Nc1cc(Nc2nccc(-c3ccc4c(ccn4C)c3)n2)c(OC)cc1N(C)CCN(C)C` [Compound Z-87], the IC50 in test [2] stood at 210 nM; in test [1] it was 8 nM; in test [4], 31 nM. Also, the “Selective inhibitory activities” value in test [4] came out at 6.8.

For `C=CC(=O)Nc1cc(Nc2ncc(Cl)c(-c3cnc4c(ccn4C)c3)n2)c(OC)cc1N(C)CCN(CC)CC` [Compound Z-110], the IC50 in test [3] (cytotoxicity, MTT, 72 h) turned out to be 6840 nM.

For `C=CC(=O)Nc1cc(Nc2ncc(C(=O)OC)c(-c3cnc4c(ccn4C)c3)n2)c(OC)cc1N(C)CCN(C)C` [Compound Z-32], the IC50 in test [3] (cytotoxicity, MTT, 72 h) was more than 10000 nM; in test [1], 4 nM.

In the case of `C=CC(=O)Nc1cc(Nc2nccc(-c3cnc4c(cnn4C)c3)n2)c(OC)cc1N1CCN(C)CC1` [Compound Z-5, N-(4-methoxy-5-(4-(1-methyl-1H-pyrazolo[3,4-b]pyridin-5-yl)pyrimidin-2-ylamino)-2-(4-methylpiperazin-1-yl)phenyl)acrylamide], in test [1], the IC50 is 105 nM.

Take `C=CC(=O)Nc1cc(Nc2ncc(OC)c(-c3cnc4c(cnn4C)c3)n2)c(OC)cc1N1CCC(N(C)C)CC1` [Compound Z-38]: the IC50 in test [3] (cytotoxicity, MTT, 72 h) is more than 10000 nM; in test [1], 35 nM.

Take `C=CC(=O)Nc1cc(Nc2nccc(-c3cnn(C)c3)n2)c(OC)cc1N(C)CCN(C)C` [Compound Z-18, N-(2-((2-(dimethylamino)ethyl)(methyl)amino)-4-methoxy-5-((4-(1-methyl-1H-pyrazol-4-yl)pyrimidin-2-yl)amino)phenyl)acrylamide]: the IC50 in test [1] stood at 197 nM.

As to `C=CC(=O)Nc1cc(Nc2ncc(Cl)c(-c3cnc4c(cnn4C)c3)n2)c(OC)cc1N1CCC(N(C)C)CC1` [Compound Z-40], the IC50 in test [2] amounted to 2140 nM; in test [1], 233 nM; in test [4], 70 nM. Moreover, in test [4], the “Selective inhibitory activities” value was determined as 30.5.

With `C=CC(=O)Nc1cc(Nc2ncc(F)c(-c3cnc4c(cnn4C)c3)n2)c(OC)cc1N1CCC(N(C)C)CC1` [Compound Z-37], the values for the IC50 in test [2], in test [1] and in test [4] were 481 nM, 89 nM and 57 nM, respectively. The “Selective inhibitory activities” value in test [4] was found to be 8.4.

On to `C=CC(=O)Nc1cc(Nc2ncc(F)c(-c3cnc4c(ccn4C)c3)n2)c(OC)cc1N(C)CCN(C)C` [Compound Z-20, N-(2-((2-(dimethylamino)ethyl)(methyl)amino)-5-((5-fluoro-4-(1-methyl-1H-pyrrolo[2,3-b]pyridin-5-yl)pyrimidin-2-yl)amino)-4-methoxyphenyl)acrylamide], for which the IC50 in test [2] (Homo sapiens, A-431) is 167 nM; in test [1], 4 nM; in test [4] (Homo sapiens, NCI-H1975), 22 nM. In addition, the “Selective inhibitory activities” value in test [4] turned out to be 7.6.

Molecule `C=CC(=O)Nc1cc(Nc2ncc(F)c(-c3cnc4c(c3)c(Cl)cn4C)n2)c(OC)cc1N1CCC(N(C)C)CC1` [Compound Z-122] returned an IC50 in test [1] of 25 nM.

As to `C=CC(=O)Nc1cc(Nc2ncc(Cl)c(-c3cnc4c(ccn4C)c3)n2)c(OC)cc1NCCCN(C)C` [Compound Z-114], the IC50 in test [3] (cytotoxicity, MTT, 72 h) was found to be 8280 nM; in test [1], 116 nM.

As to `C=CC(=O)Nc1cc(Nc2ncc(OC)c(-c3cnc4c(ccn4C)c3)n2)c(OC)cc1N(C)CCN(C)C` [Compound Z-21, N-(2-((2-(dimethylamino)ethyl)(methyl)amino)-4-methoxy-5-((5-methoxy-4-(1-methyl-1H-pyrrolo[2,3-b]pyridin-5-yl)pyrimidin-2-yl)amino)phenyl)acrylamide], the IC50 in test [2] (Homo sapiens, A-431) is 113 nM; in test [1], 9 nM; in test [4] (Homo sapiens, NCI-H1975), 11 nM. The “Selective inhibitory activities” value in test [4] is 10.3.

As for `C=CC(=O)Nc1cc(Nc2ncc(F)c(-c3cnn(C)c3)n2)c(OC)cc1N(C)CCN(C)C` [Compound Z-93, N-(2-((2-(dimethylamino)ethyl)(methyl)amino)-5-(5-fluoro-4-(1-methyl-1H-pyrazol-4-yl)pyrimidin-2-ylamino)-4-methoxyphenyl)acrylamide], the IC50 in test [3] (setting [6]) is more than 10000 nM.

Turning to `C=CC(=O)Nc1cc(Nc2ncc(Cl)c(-c3cnc4c(ccn4C)c3)n2)c(OC)cc1N(C)CCNC` [Compound Z-116], the IC50 is more than 10000 nM in test [3] (cytotoxicity, MTT, 72 h) and 37 nM in test [1].

Regarding `C=CC(=O)Nc1cc(Nc2ncc(Cl)c(-c3ccc4c(ccn4C)c3)n2)c(OC)cc1N(C)CCN(C)C` [Compound Z-88], the figures for the IC50 in test [2], in test [1] and in test [4] were 449 nM, 11 nM and 18 nM, respectively. The “Selective inhibitory activities” value in test [4] was determined as 24.9.

Regarding `C=CC(=O)Nc1cc(Nc2ncc(Cl)c(-c3cnc4c(c3)c(Cl)cn4C)n2)c(OC)cc1N(C)CCN(C)C` [Compound Z-121], the IC50 in test [3] (cytotoxicity, MTT, 72 h) was determined as 8530 nM; in test [1], 14 nM.

These data come from US10435400B2, “2,4-disubstituted phenylene-1,5-diamine derivatives and applications thereof, and pharmaceutical compositions and pharmaceutically acceptable compositions prepared therefrom” (SHANGHAI HAIYAN PHARMACEUTICAL TECHNOLOGY CO., LTD., priority 2014, dated 2019).
